2 molecules from US20230172885A1, “THIOL-CONTAINING COMPOUNDS FOR USE IN TREATING CORONAVIRUS” (priority 2020, published 2023) can be followed below.

The assay concerns the target RBD^N501Y binding to ACE2 (Severe acute respiratory syndrome coronavirus 2, UniProt P0DTC2, N501Y). Further details: species or system SARS-CoV-2.

For the molecule `NCCS` [Cysteamine], the “inhibition of binding of RBD^N501Y to ACE2” value is recorded as “potently inhibited”. As for `O[C@@H]1[C@@H](O)[C@@H](O[C@H]2O[C@H](CS)[C@@H](O)[C@H](O)[C@H]2O)O[C@H](CS)[C@H]1O` [MUC-31, 6,6′-dithiotrehalose], the entry is “potently inhibited”.
